This series is described as follows: Measurement of 1-octanol/water partition coefficient (LogPOW) by HPLC, OECD Test Guideline 117. The series is classed as physicochemical. The settings on record: for LogPOW: 1-octanol/water partition coefficient calculated from HPLC elution time, OECD Test Guideline 117, ODS column, acetonitrile/0.6 mass % HClO4 aq. 1/1, 40° C.; for bioaccumulation potential (indicated by LogPOW value as compared to APFO): judged from LogPOW compared to APFO. Here is the method:
In accordance with OECD Test Guideline 117, 1-octanol/water partition coefficient (LogPOW) of a fluorinated emulsifier was measured by using HPLC (high performance liquid chromatography).
Conditions for the measurement were as follows: column: TOSOH ODS-120T column (φ 4.6 mm×250 mm), eluent: acetonitrile/0.6 mass % of HClO4 aqueous solution=1/1 (vol/vol %), flow rate: […], sample amount: 300 μL, column temperature: 40° C., and detection light: UV 210 nm (WO2005-42593).
HPLC was carried out on standard substances (heptanoic acid, octanoic acid, nonanoic acid and decanoic acid) having known 1-octanol/water partition coefficients, and a calibration curve was prepared from the respective elution times and octanol/water partition coefficients of the respective standard substances. Based on this calibration curve, a value of partition coefficient (LogPOW) between 1-octanol and water was calculated from the elution time by HPLC of the fluorinated emulsifier.
Further, in general, in order to judge whether or not a chemical substance is apt to be accumulated in a living organism, a testing method for measurement of a partition coefficient (LogPOW) between 1-octanol and water, is stipulated. As the testing method, in addition to “Partition Coefficient (1-octanol/water) Shake Flask Method” as stipulated in OECD test guideline 107 and in Japanese Industrial Standards Z 7260-107 (2000), a HPLC method (high-performance liquid chromatography) as stipulated and published in OECD Test Guideline 117, is used. A compound having a large partition coefficient value has a large tendency for bioaccumulation, and a compound having a small value means a small tendency for bioaccumulation. In a case where the LogPOW value is less than 3.5, it is considered proper to judge that it is not a high-concentration, and bioaccumulation is also considered to be small.

These results are taken from US7855259B2, “Method for producing melt-processable fluororesin” (Asahi Glass Company, Limited, priority 2005, dated 2010).

For `N.O=C(O)C(F)(F)C(F)(F)C(F)(F)C(F)(F)C(F)(F)C(F)(F)C(F)(F)F` [CF3(CF2)6COONH4, ammonium perfluorooctanoate], the LogPOW is given as 3.67.
For the molecule `N.O=C(O)C(F)(F)OC(F)(F)C(F)(F)OC(F)(F)C(F)(F)F` [CF3CF2OCF2CF2OCF2COONH4], the LogPOW is on record as 3.13 and the “bioaccumulation potential (indicated by LogPOW value as compared to APFO)” value is “low”.
Consider `N.O=C(O)C(F)(OC(F)(F)C(F)(OC(F)(F)C(F)(F)F)C(F)(F)F)C(F)(F)F` (centres unmarked) [CF3CF2OCF(CF3)CF2OCF(CF3)COONH4], for which the LogPOW was 4.03 and the “bioaccumulation potential (indicated by LogPOW value as compared to APFO)” value is “high”.
